Assay results reported in article PMC10354048 (Communications Chemistry, 2023).
Where no end group is shown, it is not given here.

Columns and labels:
Experiment in all cases: microbe, parasite or virus in culture
S. epidermidis CW131612 = conditions: broth microdilution per CSLI guidelines, cation-adjusted Mueller Hinton Broth 2, 5 × 10^5 CFU/mL, 37 °C, 20 h, range 64–0.125 µg/mL, average of three repeat assays
Protocol: (§1) Minimum inhibitory concentrations, determined by broth microdilution, are expressed as an average of three repeat assays. […] [a] MIC values expressed in μg/mL, [b] AC: American Type Culture Collection strain, [c] CW: CANWARD collection clinical isolate strain.33.
(§2) Minimum Inhibitory Concentrations (MIC) were determined for each of the bacteriocins and controls using a broth microdilution method, as per CSLI guidelines for microbial susceptibility testing. The peptides were dissolved in sterile deionized water to prepare the working stocks, with concentrations determined by UV absorbance at 280 nm[56]. Overnight cultures from the strains of interest were incubated with shaking overnight at 37 °C. Cation-adjusted Mueller Hinton Broth 2 (MHB 2) was used for the S. aureus, and S. epidermidis strains and Brain Heart Infusion (BHI) broth was utilized for the E. faecalis and E. faecium strains. The cultures were prepared and diluted to the turbidity of a 0.5 McFarland standard using MHB or BHI fresh media. Increasing concentrations of the leaderless bacteriocins were added to a 96-well polypropylene plate. The range tested for each bacteriocin was 64–0.125 µg/mL. The bacterial culture was further diluted and mixed in a 1:1 ratio with the bacteriocin solution to yield a final concentration in the wells of 5 × 10^5 CFU/mL. […] A 1:1000 dilution of the growth control was prepared in the respective media and plated onto agar (100 μL) to ensure the correct inoculum concentration (5 × 10^5 CFU/mL indicated by ≈ 50 bacterial colonies). The 96-well and agar plates were incubated at 37 °C, and growth was assessed by the formation of a pellet observable with the naked eye after 20 h. […] Each assay was performed in triplicate.
(§3) Materials and instruments […]
(§4) Minimum Inhibitory Concentration (MIC)
(§5) assays were conducted in 96-Well Clear polypropylene corner notch microplates (Corning, #11313595). For the […]

S. aureus CW115852 = conditions: broth microdilution per CSLI guidelines, cation-adjusted Mueller Hinton Broth 2, 5 × 10^5 CFU/mL, 37 °C, 20 h, range 64–0.125 µg/mL, average of three repeat assays
Protocol: as §1, §2, §3, §4, §5

S. aureus CW114125 = conditions: broth microdilution per CSLI guidelines, cation-adjusted Mueller Hinton Broth 2, 5 × 10^5 CFU/mL, 37 °C, 20 h, range 64–0.125 µg/mL, average of three repeat assays
Protocol: as §1, §2, §3, §4, §5

S. aureus AC29213 = conditions: broth microdilution per CSLI guidelines, cation-adjusted Mueller Hinton Broth 2, 5 × 10^5 CFU/mL, 37 °C, 20 h, range 64–0.125 µg/mL, average of three repeat assays
Protocol: as §1, §2, §3, §4, §5

S. aureus CW113379 = conditions: broth microdilution per CSLI guidelines, cation-adjusted Mueller Hinton Broth 2, 5 × 10^5 CFU/mL, 37 °C, 20 h, range 64–0.125 µg/mL, average of three repeat assays
Protocol: as §1, §2, §3, §4, §5

E. faecalis CW133003 = conditions: broth microdilution per CSLI guidelines, Brain Heart Infusion broth, 5 × 10^5 CFU/mL, 37 °C, 20 h, range 64–0.125 µg/mL, average of three repeat assays
Protocol: as §1, §2, §3, §4, §5

E. faecium CW131126 = conditions: broth microdilution per CSLI guidelines, Brain Heart Infusion broth, 5 × 10^5 CFU/mL, 37 °C, 20 h, range 64–0.125 µg/mL, triplicate
Protocol: as §2, §3
(§6) Minimum Inhibitory Concentration (MIC) assays were conducted in 96-Well Clear polypropylene corner notch microplates (Corning, #11313595). For the assay media, cation adjusted Mueller Hinton Broth 2 (Sigma Aldrich, #90922) was used for the S. aureus, and S. epidermidis strains and Brain Heart Infusion broth (BD, #221812) was used for the E. faecalis and E. faecium […]
(§7) used, as well as melittin prepared by automated SPPS. Experimental bacterial strains used were procured from the American Type Culture collection (S. aureus 29213) and the Canadian Antimicrobial Resistance Alliance

S. epidermidis CW130500 = conditions: broth microdilution per CSLI guidelines, cation-adjusted Mueller Hinton Broth 2, 5 × 10^5 CFU/mL, 37 °C, 20 h, range 64–0.125 µg/mL, triplicate
Protocol: as §2, §3, §6, §7

E. faecalis CW133346 = conditions: broth microdilution per CSLI guidelines, Brain Heart Infusion broth, 5 × 10^5 CFU/mL, 37 °C, 20 h, range 64–0.125 µg/mL, triplicate
Protocol: as §2, §3, §6, §7

E. faecium CW130826 = conditions: broth microdilution per CSLI guidelines, Brain Heart Infusion broth, 5 × 10^5 CFU/mL, 37 °C, 20 h, range 64–0.125 µg/mL, triplicate
Protocol: as §2, §3, §6, §7

Substance | Minimum inhibitory concentration S. epidermidis CW131612 (S. epidermidis CW131612) | Minimum inhibitory concentration S. aureus CW115852 (S. aureus CW115852) | Minimum inhibitory concentration S. aureus CW114125 (S. aureus CW114125) | Minimum inhibitory concentration S. aureus AC29213 (S. aureus AC29213) | Minimum inhibitory concentration S. aureus CW113379 (S. aureus CW113379) | Minimum inhibitory concentration E. faecalis CW133003 (E. faecalis CW133003) | Minimum inhibitory concentration E. faecium CW131126 (E. faecium CW131126) | Minimum inhibitory concentration S. epidermidis CW130500 (S. epidermidis CW130500) | Minimum inhibitory concentration E. faecalis CW133346 (E. faecalis CW133346) | Minimum inhibitory concentration E. faecium CW130826 (E. faecium CW130826)
MAGFLKVVQLLAKYGSKAVQWAWANKGKILDLLNAGQAIDWVVSKIKQILGIK-NH2 (C-terminus assumed) [L-W32L, L-lacticin Q W32L (Met^1-Lys^53)] | 16 µg/mL | 32 µg/mL | 64 µg/mL | 64 µg/mL | 32 µg/mL | 4 µg/mL | 4 µg/mL | 16 µg/mL | 4 µg/mL | 2 µg/mL
MAGFLKVVQLLAKYGSKAVQWAWANKGKILDWLNAGQAIDLVVSKIKQILGIK-NH2 (C-terminus assumed) [L-W41L, L-lacticin Q W41L (Met^1-Lys^53)] | > 64 µg/mL | > 64 µg/mL | > 64 µg/mL | > 64 µg/mL | > 64 µg/mL | 64 µg/mL | 8 µg/mL | – | – | –
MAGFLKVVQLLAKYGSKAVQWAWANKGKILDWLNAGQAIDWVVSKIKQILGIK-NH2 [L-LnqQ, L-lacticin Q (Met^1-Lys^53)] | 8 µg/mL | 64 µg/mL | 32 µg/mL | 16 µg/mL | 32 µg/mL | 2 µg/mL | 2 µg/mL | 16 µg/mL | 4 µg/mL | 2 µg/mL
MSLLNFLKYIAKYGKKAVSAAWKYKGKVLEWLNVGPTLEWVWQKLKKIAGL-NH2 [L-W3L, L-aureocin A53 W3L (Met^1-Leu^51)] | 4 µg/mL | 32 µg/mL | 4 µg/mL | 4 µg/mL | 4 µg/mL | 16 µg/mL | 4 µg/mL | 4 µg/mL | 4 µg/mL | 2 µg/mL
MSWLNFLKYIAKYGKKAVSAALKYKGKVLEWLNVGPTLEWVWQKLKKIAGL-NH2 [L-W22L, L-aureocin A53 W22L (Met^1-Leu^51)] | 4 µg/mL | 16 µg/mL | 8 µg/mL | 2 µg/mL | 16 µg/mL | 16 µg/mL | 4 µg/mL | 8 µg/mL | 4 µg/mL | 2 µg/mL
